Results taken from patent US20100247579A1, “THERAPEUTIC AGENT FOR CANCER” (priority 2007, published 2010).
≈ marks a conversion by molar mass, not a printed value. Like-named read-outs stand apart in the source and are kept apart here.

How the values were obtained:
[1] = test system: lymphocytes derived from cancer patient No. PT009 expanded with OKT3 and CH-296; test: Resistance to anticancer agents, WST-1 GI50 on cultured lymphocytes of cancer patient No. PT009; assay type: cell-based, human; conditions: Homo sapiens, Lymphocyte, day 10 of culture with OKT3 and CH-296, 20 hours with drug, read-out: GI50
Procedure: After that, the suspension was stained by the trypan blue staining method to calculate the viable cell count, and then subjected to each experiment.
(§1) On the other hand, the IL-2/5HRPMI was added to the control group in 50 μL/well each.
(§2) These culture plates were incubated at 37° C. for 20 hours in the presence of 5% CO2. After the incubation, WST-1 (Premix WST-1 Cell Proliferation Assay System, manufactured by Takara Bio Inc.) was added in 20 μL/well each to each well of the plate, and incubated in the presence of 5% CO2 at 37° C. for 4 hours. The plates after the incubation were centrifuged at 500×g at room temperature for 5 minutes. After the centrifugation, 100 μL of the supernatant was collected from each well, and the absorbance was measured at an absorption wavelength of 450 nm and a control wavelength of 630 nm [hereinafter referred to as the absorbance (450 nm-630 nm)] using a microplate reader (manufactured by Bio-Rad Laboratories, Inc., Model Number 680XR), and then the specific absorbance (450 nm-630 nm) was calculated according to the following formula.
(§3) Specific absorbance (450 nm-630 nm)=Absorbance of Test Cell Addition Group (450 nm-630 nm)−Absorbance of Control Group (450 nm-630 nm) Formula 2: […]

[2] = test system: expanded lymphocytes derived from a human healthy donor; test: Resistance to anticancer agents, WST-1 GI50 on cultured lymphocytes of a human healthy donor; assay type: cell-based; conditions: Homo sapiens, Lymphocyte
Procedure: as §1, §2, §3
Here, a group where only OKT3 was immobilized to the culture equipment in the expansion of the lymphocytes was also set.
However, in the case of paclitaxel, a human AB type serum was used as a solvent for dilution, and for other drugs, 5HRPMI was used for dilution.

[3] = healthy donor lymphocytes expanded with OKT3 + CH-296, read-out: GI50 (μg/mL) Initial Stimulation OKT3 + CH-296
[4] = healthy donor lymphocytes expanded with OKT3 alone, read-out: GI50 (μg/mL) Initial Stimulation OKT3

GI50 [1]	Structure (SMILES)	GI50 [2, 3]	GI50 [2, 4]
639 µg/mL (≈ 4.91 mM)	O=c1[nH]cc(F)c(=O)[nH]1 [Fluorouracil, fluorouracil]	3270 µg/mL	2290 µg/mL (≈ 17.6 mM)
	CC(=O)O[C@H]1C(=O)[C@@]2(C)[C@H]([C@H](OC(=O)c3ccccc3)[C@]3(O)C[C@H](OC(=O)[C@H](O)[C@@H](NC(=O)c4ccccc4)c4ccccc4)C(C)=C1C3(C)C)[C@]1(OC(C)=O)CO[C@@H]1C[C@@H]2O [Paclitaxel, paclitaxel]	39.7 µg/mL	34.1 µg/mL (≈ 0.0399 mM)
